# From patent publication US11116771B2, “G protein-coupled receptor (GPCR) modulation by imipridones” (Oncoceutics, Inc., priority 2016, dated 2021)
# Where two headings read alike, the source gives them in different places.
# Columns and labels:
# Format in all cases: cell-based
# [1] = test system: Staphylococcus aureus ATCC 700699; assay: MIC by micro-broth dilution, S. aureus ATCC 700699; conditions: ATCC700699
# [2] = test system: Staphylococcus aureus ATCC 33591; assay: MIC by micro-broth dilution, S. aureus ATCC 33591; conditions: ATCC33591
# human cancer cells = assay: Viability of human cancer cells at 72 hours post-treatment; conditions: for Relative Potency*: relative to the potency of ONC201, viability of human cancer cells at 72 hours post-treatment
# [3] = test system: NCI60 cancer cell line panel; assay: NCI60 cancer cell line panel; conditions: NCI60 panel (FIG. 16)
# DRD5 = DRD5 (Homo sapiens, UniProt P21918); assay: β-arrestin recruitment GPCR reporter assay, DRD5; conditions: arrestin recruitment reporter assay
# DRD5, sequence (P21918 whole entry): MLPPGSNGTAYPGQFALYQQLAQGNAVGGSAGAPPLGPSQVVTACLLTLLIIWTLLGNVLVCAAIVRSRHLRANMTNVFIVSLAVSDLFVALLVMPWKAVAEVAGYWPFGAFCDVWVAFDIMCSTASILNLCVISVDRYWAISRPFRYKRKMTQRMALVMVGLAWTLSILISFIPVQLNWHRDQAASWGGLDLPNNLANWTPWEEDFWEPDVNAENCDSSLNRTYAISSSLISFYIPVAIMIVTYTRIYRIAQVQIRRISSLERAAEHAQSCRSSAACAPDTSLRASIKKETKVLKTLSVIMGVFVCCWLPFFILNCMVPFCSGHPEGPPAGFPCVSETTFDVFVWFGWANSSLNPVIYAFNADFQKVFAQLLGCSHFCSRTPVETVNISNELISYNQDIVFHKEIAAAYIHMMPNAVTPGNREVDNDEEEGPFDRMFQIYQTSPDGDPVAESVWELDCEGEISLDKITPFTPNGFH
# GPR132 = molecular target: T1, GPR132 (Homo sapiens, UniProt Q9UNW8); assay: β-arrestin recruitment GPCR reporter assay, GPR132
# T1 sequence (Q9UNW8 1-380): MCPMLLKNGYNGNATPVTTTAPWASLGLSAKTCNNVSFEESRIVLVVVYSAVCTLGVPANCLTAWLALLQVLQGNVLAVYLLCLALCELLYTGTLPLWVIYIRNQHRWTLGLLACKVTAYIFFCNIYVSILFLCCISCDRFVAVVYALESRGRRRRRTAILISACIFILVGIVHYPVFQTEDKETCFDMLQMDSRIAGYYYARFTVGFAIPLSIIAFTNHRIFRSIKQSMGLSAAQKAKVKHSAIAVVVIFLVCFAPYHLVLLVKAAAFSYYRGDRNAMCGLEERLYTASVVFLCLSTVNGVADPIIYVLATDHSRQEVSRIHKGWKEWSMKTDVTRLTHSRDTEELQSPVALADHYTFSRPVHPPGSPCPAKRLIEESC
SMILES,Relative Potency* (human cancer cells),other results
"COc1cccc(OC)c1C(=O)N[C@@H]1C(=O)N2[C@@H]1SC(C)(C)[C@@H]2C(=O)O [Methicillin, reference compound]",–,"MIC ([1]; MDR Staphylococcus aureus (ATCC 700699), read-out: MIC): > 100 µg/mL; MIC90 ([1]; Staphylococcus aureus, ATCC 700699 (48 hours), read-out: MIC90): > 100 µg/mL; MIC ([1]; Staphylococcus aureus, ATCC 700699 (48 hours), read-out: MIC95): > 100 µg/mL; MIC99 ([1]; Staphylococcus aureus, ATCC 700699 (48 hours), read-out: MIC99): > 100 µg/mL; MIC ([1]; Staphylococcus aureus, ATCC 700699 (48 hours), read-out: MIC, Visual): > 100 µg/mL; MIC ([2]; Staphylococcus aureus (ATCC 33591), methicillin resistant, read-out: MIC): > 100 µg/mL; MIC90 ([2]; Staphylococcus aureus, ATCC 33591, 24 hours, read-out: MIC90): > 100 µg/mL; MIC ([2]; Staphylococcus aureus, ATCC 33591, 24 hours, read-out: MIC95): > 100 µg/mL; MIC99 ([2]; Staphylococcus aureus, ATCC 33591, 24 hours, read-out: MIC99): > 100 µg/mL; MIC ([2]; Staphylococcus aureus, ATCC 33591, 24 hours, read-out: MIC, Visual): > 100 µg/mL"
O=C1C2=C(CCN(Cc3ccccc3)C2)N2CCN=C2N1CCN1CCOCC1 [ONC224],A (A Indicates a potency increase of >2-fold of ONC201),–
COc1ccc(CN2CCC3=C(C2)C(=O)N(Cc2ccc(C(F)(F)F)cc2)C2=NCCN23)cc1 [ONC229],B (B Indicates potency that is within 2-fold of ONC201),–
O=C1C2=C(CCN(Cc3ccccc3)C2)N2CCN=C2N1Cc1ccccc1F [ONC217],C (C Indicates a potency decrease of >2-fold of ONC201),–
O=C1C2=C(CCN(Cc3ccccc3)C2)N2CCN=C2N1Cc1cccs1 [ONC203],C (C Indicates a potency decrease of >2-fold of ONC201),anti-cancer efficacy across tumor types [3]: inactive negative control
O=C1C2=C(CCN(Cc3cccnc3)C2)N2CCN=C2N1Cc1ccc(C(F)(F)F)cc1 [ONC231],A (A Indicates a potency increase of >2-fold of ONC201),–
O=C1C2=C(CCN(CC(O)c3ccccc3)C2)N2CCN=C2N1Cc1ccc(C(F)(F)F)cc1 (centres unmarked) [ONC237],C (C Indicates a potency decrease of >2-fold of ONC201),"GPCR activity, DRD5 (DRD5): DRD5 antagonist; GPCR activity, GPR132 (GPR132): GPR132 agonist; IC50 (human cancer cells; Homo sapiens, cell line not stated, read-out: anticancer efficacy IC50): 31.2 µM"
O=C1C2=C(CCN(Cc3ccccc3)C2)N2CCN=C2N1Cc1ccc(Cl)c(Cl)c1 [ONC211],B (B Indicates potency that is within 2-fold of ONC201),–
O=C1C2=C(CCN(Cc3cnccn3)C2)N2CCN=C2N1Cc1ccc(C(F)(F)F)cc1 [ONC233],B (B Indicates potency that is within 2-fold of ONC201),–
O=C1C2=C(CCN(Cc3ccccc3)C2)N2CCN=C2N1CCN1CCN(Cc2ccccc2)CC1 [ONC205],C (C Indicates a potency decrease of >2-fold of ONC201),–
O=C(CCCN1CCC2=C(C1)C(=O)N(Cc1ccc(C(F)(F)F)cc1)C1=NCCN12)c1ccc(F)cc1 [ONC230],A (A Indicates a potency increase of >2-fold of ONC201),–
O=C1C2=C(CCN(Cc3ccc(F)cc3)C2)N2CCN=C2N1Cc1ccc(C(F)(F)F)cc1 [ONC228],A (A Indicates a potency increase of >2-fold of ONC201),–
O=C1C2=C(CCN(Cc3ccccc3)C2)N2CCN=C2N1Cc1ccc(Cl)cc1Cl [ONC219],A (A Indicates a potency increase of >2-fold of ONC201),–
Cc1csc(CN2CCC3=C(C2)C(=O)N(Cc2ccc(C(F)(F)F)cc2)C2=NCCN23)n1 [ONC232],B (B Indicates potency that is within 2-fold of ONC201),–
O=C1C2=C(CCN(Cc3ccccc3)C2)N2CCN=C2N1Cc1cccnc1 [ONC226],A (A Indicates a potency increase of >2-fold of ONC201),–
O=C1C2=C(CCN(Cc3ccccc3)C2)N2CCN=C2N1CC1CCON1 (centres unmarked) [ONC222],C (C Indicates a potency decrease of >2-fold of ONC201),–
